The values below come from ChEMBL document CHEMBL5465560, “Selectivity Literature for EUbOPEN Chemogenomic Library” (2024).

A value given as a limit tells only on which side of the number the result lay.

In assay [1] the target is Calcium/calmodulin-dependent protein kinase type II subunit gamma (Homo sapiens) (UniProt Q13555). Kind of assay: Selectivity interaction (ActivX KiNativ screen (ex vivo kinase selectivity in human PBMCs)) EUB0001619a CAMK2G. In kind it is cell-based. The note with it: PBMC, at 1 µM.
Assay [2] deals with T1, Mitogen-activated protein kinase kinase kinase 19 (Homo sapiens) (UniProt Q56UN5).
T1 sequence (whole entry): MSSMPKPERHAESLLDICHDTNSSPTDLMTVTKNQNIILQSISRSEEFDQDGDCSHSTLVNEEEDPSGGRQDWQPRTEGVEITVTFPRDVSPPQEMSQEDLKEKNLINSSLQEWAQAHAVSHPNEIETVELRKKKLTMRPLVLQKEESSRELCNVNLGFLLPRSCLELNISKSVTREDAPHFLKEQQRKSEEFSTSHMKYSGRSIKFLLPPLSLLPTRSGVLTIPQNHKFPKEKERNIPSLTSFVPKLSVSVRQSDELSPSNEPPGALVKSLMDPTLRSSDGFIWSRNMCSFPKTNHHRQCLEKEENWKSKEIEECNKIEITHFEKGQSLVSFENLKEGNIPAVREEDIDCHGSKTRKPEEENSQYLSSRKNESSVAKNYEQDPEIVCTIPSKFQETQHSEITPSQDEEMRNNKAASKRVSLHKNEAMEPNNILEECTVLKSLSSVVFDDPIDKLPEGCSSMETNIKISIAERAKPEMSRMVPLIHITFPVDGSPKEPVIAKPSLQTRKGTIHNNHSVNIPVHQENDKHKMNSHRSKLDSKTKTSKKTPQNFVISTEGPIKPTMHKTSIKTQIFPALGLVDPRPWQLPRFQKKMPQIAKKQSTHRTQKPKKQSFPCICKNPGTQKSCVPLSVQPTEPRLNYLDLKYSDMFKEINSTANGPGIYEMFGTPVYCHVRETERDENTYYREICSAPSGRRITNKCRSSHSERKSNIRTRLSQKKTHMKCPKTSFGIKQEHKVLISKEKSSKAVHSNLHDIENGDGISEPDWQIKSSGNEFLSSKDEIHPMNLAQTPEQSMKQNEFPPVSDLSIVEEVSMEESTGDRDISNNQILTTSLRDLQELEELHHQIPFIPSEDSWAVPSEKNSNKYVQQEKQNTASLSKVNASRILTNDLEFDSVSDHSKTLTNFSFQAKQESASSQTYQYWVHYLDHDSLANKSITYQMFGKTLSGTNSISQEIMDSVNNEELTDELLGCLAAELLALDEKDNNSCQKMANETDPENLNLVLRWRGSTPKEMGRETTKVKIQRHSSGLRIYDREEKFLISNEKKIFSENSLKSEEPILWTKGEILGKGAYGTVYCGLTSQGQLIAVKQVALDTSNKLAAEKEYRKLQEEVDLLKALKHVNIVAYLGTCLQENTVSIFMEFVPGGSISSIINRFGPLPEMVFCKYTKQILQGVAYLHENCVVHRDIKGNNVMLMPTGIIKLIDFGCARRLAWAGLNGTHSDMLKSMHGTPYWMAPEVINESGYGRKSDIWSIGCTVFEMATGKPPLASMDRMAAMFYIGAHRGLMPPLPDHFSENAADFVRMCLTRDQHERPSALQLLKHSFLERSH
Kind of assay: Selectivity interaction (KinomeScan (DiscoverX)) EUB0001619a MAP3K19. The note with it: at 1 µM.

Assay [3] concerns the target Cyclin-dependent kinase 17 (Homo sapiens) (UniProt Q00537). Kind of assay: Selectivity interaction (ActivX KiNativ screen (ex vivo kinase selectivity in human PBMCs)) EUB0001619a CDK17. In kind it is cell-based. The note with it: PBMC, at 1 µM.
The target in assay [4] is Glutamate receptor ionotropic, kainate 1 (Homo sapiens) (UniProt P39086). Kind of assay: Selectivity interaction (Eurofins CEREP Diversity Profile (receptors and ion channels)) EUB0000279b GRIK1. As to conditions: at 10 µM.
Assay [5] addresses Macrophage colony-stimulating factor 1 receptor (Homo sapiens) (UniProt P07333). Kind of assay: Selectivity interaction (SelectScreen profiling (Invitrogen)) EUB0000607a CSF1R. The note with it: at 2 µM.
Assay [6] addresses Death-associated protein kinase 3 (Homo sapiens) (UniProt O43293). Kind of assay: Selectivity interaction (SelectScreen profiling (Invitrogen)) EUB0000607a DAPK3. As to conditions: at 2 µM.
Assay [7] concerns the target Serine/threonine-protein kinase 38 (Homo sapiens) (UniProt Q15208). Put plainly: Selectivity interaction (ActivX KiNativ screen (kinase selectivity in THP-1 cell lysates)) EUB0000639a STK38. Format: subcellular. As to conditions: lysate, at 0.2 µM.
Assay [8] concerns the target Protein-tyrosine kinase 2-beta (Homo sapiens) (UniProt Q14289). Put plainly: Selectivity interaction (ActivX KiNativ screen (kinase selectivity in THP-1 cell lysates)) EUB0000639a PTK2B. As to conditions: lysate, at 0.04 µM. In kind it is subcellular.
For assay [9], the target named is Aurora kinase B (Homo sapiens, UniProt Q96GD4). Kind of assay: Selectivity interaction (Kinase panel (DSF assay)) EUB0001559a AURKB. For orientation: Differential scanning fluorimetry follows unfolding on heating by fluorescence.
Assay [10] deals with T1, Mitogen-activated protein kinase kinase kinase 19 (Homo sapiens). Put plainly: Selectivity interaction (KinomeScan (DiscoverX)) EUB0000045b MAP3K19.
The target of assay [11] is Serine/threonine-protein kinase tousled-like 2 (Homo sapiens) (UniProt Q86UE8). Kind of assay: Selectivity interaction (Ambit KINOMEscan and KiNATiv profiling in Jurkat cells) EUB0000090b TLK2. Format: cell-based. The note with it: at 1 µM.
Assay [12] concerns the target RAC-beta serine/threonine-protein kinase (Homo sapiens) (UniProt P31751). Put plainly: Selectivity interaction (Upstate Kinase Profiler service (Millipore)) EUB0000056c AKT2. The note with it: at 1 µM.
Assay [13] deals with Ribosomal protein S6 kinase alpha-3 (Homo sapiens, UniProt P51812). Put plainly: Selectivity interaction (KinomeScan (DiscoverX)) EUB0000618a RPS6KA3. As to conditions: at 10 µM.
Assay [14] concerns the target Serine/threonine-protein kinase SIK1 (Homo sapiens) (UniProt P57059). Kind of assay: Selectivity interaction (KinomeScan (DiscoverX)) EUB0000618a SIK1. As to conditions: at 10 µM.
For assay [15], the target named is T2, Muscarinic acetylcholine receptor M1 (Homo sapiens) (UniProt P11229).
T2 sequence (whole entry): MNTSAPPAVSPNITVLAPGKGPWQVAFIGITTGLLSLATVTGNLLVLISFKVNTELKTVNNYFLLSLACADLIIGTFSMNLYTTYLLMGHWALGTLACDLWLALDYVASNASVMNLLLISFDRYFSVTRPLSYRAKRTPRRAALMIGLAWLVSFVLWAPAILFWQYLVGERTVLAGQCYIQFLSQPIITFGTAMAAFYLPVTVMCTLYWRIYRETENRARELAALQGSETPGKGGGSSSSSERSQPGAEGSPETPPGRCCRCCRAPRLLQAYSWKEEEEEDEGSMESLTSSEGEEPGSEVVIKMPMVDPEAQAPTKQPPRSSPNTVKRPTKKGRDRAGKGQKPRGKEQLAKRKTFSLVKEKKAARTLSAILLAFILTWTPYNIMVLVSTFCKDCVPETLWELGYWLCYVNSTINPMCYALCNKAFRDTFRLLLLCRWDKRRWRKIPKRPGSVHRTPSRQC
Kind of assay: Selectivity interaction (Panel of kinases, GPCRs, ion channels and transporters (enzymatic assay)) EUB0000266bCl CHRM1.

Assay [16] relates to Receptor-type tyrosine-protein kinase FLT3 (Homo sapiens), P36888 [UNDEFINED MUTATION]. Kind of assay: Selectivity interaction (KinomeScan (DiscoverX)) EUB0000229b FLT3. As to conditions: at 1 µM.
Sequence of Receptor-type tyrosine-protein kinase FLT3 (Homo sapiens), P36888 [UNDEFINED MUTATION] (P36888 whole entry, looked up, change not shown): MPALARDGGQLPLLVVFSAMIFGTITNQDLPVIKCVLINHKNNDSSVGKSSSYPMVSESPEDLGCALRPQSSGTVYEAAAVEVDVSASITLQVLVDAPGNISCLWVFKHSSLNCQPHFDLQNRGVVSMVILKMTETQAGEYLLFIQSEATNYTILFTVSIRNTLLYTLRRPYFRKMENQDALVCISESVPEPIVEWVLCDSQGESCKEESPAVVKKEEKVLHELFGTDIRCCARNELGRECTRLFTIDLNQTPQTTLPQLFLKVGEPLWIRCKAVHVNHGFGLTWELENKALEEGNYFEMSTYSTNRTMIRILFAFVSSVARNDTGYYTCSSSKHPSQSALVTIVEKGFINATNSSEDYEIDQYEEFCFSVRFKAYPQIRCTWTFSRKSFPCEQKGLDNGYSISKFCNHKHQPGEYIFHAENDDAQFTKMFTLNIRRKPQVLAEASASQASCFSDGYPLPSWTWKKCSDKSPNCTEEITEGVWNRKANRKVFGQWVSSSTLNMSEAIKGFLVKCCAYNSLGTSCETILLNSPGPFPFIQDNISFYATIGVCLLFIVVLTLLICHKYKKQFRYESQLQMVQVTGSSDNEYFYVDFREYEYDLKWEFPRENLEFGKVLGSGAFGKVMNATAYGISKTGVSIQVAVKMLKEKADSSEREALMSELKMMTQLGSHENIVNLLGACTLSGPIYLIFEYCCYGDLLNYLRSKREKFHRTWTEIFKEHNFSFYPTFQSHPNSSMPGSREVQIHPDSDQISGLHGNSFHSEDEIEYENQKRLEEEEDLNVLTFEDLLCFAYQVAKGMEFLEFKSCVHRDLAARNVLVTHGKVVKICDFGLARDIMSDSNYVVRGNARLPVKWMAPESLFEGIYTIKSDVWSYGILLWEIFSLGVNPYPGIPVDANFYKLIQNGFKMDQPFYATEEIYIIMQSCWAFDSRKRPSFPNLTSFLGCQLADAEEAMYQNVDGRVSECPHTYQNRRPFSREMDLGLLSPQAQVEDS

Sequence of Glutamate receptor ionotropic, kainate 1 (Homo sapiens) (P39086 whole entry): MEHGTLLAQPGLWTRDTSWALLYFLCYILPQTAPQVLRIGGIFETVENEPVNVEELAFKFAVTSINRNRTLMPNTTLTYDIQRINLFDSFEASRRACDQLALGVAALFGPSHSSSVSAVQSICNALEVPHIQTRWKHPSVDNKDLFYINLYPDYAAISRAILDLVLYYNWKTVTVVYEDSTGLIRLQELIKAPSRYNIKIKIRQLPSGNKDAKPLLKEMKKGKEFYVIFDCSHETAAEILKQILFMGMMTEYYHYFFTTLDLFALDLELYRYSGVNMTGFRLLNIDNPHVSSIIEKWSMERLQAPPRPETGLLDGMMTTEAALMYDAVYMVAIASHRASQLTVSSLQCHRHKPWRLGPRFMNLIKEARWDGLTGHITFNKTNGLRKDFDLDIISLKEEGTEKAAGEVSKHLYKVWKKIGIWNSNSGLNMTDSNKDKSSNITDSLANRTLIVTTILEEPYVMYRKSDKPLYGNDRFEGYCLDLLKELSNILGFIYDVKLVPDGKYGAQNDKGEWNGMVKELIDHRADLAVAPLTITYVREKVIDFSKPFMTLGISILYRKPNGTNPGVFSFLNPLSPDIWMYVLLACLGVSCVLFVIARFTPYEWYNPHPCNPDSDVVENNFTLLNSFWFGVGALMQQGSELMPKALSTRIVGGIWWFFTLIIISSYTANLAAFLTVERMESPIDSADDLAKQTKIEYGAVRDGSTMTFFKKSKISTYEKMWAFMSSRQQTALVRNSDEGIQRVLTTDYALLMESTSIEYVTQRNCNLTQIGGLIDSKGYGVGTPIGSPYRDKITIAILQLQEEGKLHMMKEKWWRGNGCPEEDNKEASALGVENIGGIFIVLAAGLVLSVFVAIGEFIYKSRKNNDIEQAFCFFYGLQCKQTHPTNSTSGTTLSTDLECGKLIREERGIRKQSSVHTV
Sequence of Death-associated protein kinase 3 (Homo sapiens) (O43293 whole entry, looked up): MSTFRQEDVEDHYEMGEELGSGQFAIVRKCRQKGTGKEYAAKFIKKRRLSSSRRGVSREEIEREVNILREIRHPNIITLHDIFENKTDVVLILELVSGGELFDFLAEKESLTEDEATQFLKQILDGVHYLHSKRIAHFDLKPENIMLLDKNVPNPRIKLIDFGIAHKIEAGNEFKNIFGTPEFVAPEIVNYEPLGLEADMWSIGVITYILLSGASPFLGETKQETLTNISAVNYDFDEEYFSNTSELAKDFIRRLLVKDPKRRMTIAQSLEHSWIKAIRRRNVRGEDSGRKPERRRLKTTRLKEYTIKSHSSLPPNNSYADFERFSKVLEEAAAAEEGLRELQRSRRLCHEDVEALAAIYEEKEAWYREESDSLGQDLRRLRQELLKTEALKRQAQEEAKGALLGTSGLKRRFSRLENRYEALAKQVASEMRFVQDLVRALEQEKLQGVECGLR
Sequence of Cyclin-dependent kinase 17 (Homo sapiens) (Q00537 whole entry, looked up): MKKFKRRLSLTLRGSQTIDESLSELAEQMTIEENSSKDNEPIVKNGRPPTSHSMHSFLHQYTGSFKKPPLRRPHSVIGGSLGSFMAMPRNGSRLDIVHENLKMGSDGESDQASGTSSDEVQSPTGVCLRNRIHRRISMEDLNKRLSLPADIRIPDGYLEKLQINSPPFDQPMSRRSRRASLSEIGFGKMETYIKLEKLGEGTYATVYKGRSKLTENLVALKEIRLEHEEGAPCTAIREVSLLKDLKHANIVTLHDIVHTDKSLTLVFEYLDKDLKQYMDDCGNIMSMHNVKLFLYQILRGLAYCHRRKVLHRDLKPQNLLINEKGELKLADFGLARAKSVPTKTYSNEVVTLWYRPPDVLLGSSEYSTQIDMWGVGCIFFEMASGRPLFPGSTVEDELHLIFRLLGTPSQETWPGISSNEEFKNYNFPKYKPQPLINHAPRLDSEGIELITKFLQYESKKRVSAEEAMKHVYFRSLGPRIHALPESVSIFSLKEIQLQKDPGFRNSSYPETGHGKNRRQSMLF
Sequence of Serine/threonine-protein kinase tousled-like 2 (Homo sapiens) (Q86UE8 whole entry, looked up): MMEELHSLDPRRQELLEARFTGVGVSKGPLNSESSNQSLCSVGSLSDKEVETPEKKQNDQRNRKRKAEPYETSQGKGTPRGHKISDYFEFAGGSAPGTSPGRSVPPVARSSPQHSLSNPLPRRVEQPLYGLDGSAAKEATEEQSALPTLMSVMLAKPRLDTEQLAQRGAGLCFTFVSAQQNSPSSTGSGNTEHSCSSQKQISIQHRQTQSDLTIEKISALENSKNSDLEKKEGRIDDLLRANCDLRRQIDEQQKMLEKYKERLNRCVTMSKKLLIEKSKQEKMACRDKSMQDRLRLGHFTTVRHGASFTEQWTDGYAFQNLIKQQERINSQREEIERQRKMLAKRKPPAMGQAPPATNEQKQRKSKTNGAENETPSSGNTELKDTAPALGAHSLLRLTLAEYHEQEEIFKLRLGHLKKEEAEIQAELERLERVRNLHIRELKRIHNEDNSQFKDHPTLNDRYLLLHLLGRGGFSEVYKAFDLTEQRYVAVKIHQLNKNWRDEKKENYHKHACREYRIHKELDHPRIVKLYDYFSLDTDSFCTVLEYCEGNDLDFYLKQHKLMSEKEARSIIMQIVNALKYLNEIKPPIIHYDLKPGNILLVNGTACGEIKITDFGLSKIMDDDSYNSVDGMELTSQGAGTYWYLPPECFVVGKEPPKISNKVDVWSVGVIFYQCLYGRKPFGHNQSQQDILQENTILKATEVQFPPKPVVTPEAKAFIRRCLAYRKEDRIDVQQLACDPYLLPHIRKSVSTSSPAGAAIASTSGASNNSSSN
Sequence of RAC-beta serine/threonine-protein kinase (Homo sapiens) (P31751 whole entry): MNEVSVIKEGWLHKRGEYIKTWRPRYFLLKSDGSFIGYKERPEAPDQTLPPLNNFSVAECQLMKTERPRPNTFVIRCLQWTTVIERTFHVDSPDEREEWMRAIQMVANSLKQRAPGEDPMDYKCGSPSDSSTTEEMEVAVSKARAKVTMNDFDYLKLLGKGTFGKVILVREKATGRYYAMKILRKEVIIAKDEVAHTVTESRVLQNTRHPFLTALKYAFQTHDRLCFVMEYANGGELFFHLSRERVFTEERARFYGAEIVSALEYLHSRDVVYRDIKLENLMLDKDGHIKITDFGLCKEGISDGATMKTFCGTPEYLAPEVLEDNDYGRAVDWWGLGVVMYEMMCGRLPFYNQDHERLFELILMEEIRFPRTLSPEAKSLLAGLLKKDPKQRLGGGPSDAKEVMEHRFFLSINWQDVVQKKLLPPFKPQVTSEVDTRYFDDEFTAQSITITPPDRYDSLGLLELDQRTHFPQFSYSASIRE
Sequence of Calcium/calmodulin-dependent protein kinase type II subunit gamma (Homo sapiens) (Q13555 whole entry): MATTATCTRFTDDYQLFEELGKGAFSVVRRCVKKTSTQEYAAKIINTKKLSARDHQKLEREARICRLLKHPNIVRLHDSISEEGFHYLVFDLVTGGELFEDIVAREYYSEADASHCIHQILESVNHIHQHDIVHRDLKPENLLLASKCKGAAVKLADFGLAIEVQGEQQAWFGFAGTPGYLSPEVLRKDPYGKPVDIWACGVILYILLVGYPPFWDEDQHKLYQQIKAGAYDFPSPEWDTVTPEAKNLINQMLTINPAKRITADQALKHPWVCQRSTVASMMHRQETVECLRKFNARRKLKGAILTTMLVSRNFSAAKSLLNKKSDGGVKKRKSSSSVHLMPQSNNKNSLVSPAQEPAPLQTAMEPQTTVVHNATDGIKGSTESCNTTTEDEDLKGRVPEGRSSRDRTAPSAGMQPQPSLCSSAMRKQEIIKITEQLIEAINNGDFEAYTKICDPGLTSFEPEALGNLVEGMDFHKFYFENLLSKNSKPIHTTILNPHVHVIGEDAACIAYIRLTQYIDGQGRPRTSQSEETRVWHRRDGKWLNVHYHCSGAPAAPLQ
Sequence of Aurora kinase B (Q96GD4 whole entry): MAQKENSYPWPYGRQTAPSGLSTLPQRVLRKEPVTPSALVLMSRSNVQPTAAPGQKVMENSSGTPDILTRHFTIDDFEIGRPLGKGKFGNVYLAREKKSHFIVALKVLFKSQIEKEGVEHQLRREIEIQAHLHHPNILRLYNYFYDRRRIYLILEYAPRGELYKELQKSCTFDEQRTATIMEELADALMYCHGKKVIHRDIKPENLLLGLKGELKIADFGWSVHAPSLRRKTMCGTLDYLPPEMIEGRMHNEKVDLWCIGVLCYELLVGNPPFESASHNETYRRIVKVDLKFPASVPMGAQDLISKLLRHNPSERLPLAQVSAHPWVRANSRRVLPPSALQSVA

`N#Cc1cccc(-c2c[nH]c3ncnc(N4CCOCC4)c23)c1`: the % of inhibition in assay [1] is -12%; in assay [3], 25%. Moreover, in [2], the % of control was determined as 3.8%.

Take `CC(=O)c1cc(-c2ccccc2OCC2CC2)c2ncccn12`: the % of control in assay [4] is 117%. Regarding `CNC(=O)Nc1ccc(-c2nc(N3CC4CCC(C3)O4)c3cnn(C4CCC5(CC4)OCCO5)c3n2)cc1`, the % of inhibition worked out at 7% in assay [5] and 2% in assay [6].

Take `CC[C@@H]1[C@H](F)C(=O)N[C@@H]1COc1nccc2cc(C(N)=O)c(OC)cc12` [ZIMLOVISERTIB]: the figures for the % of inhibition in assay [7] and in assay [8] were 22.6% and 6.6%, respectively. Turning to `CN(C(=O)c1cnn2cccnc12)c1cc2c(cc1N1CCOCC1)C(=O)N(C[C@@H](F)C(C)(C)O)C2`, the dTM in [9] was -1.6 K.

As for `C=CC(=O)Nc1cc(-n2c(=O)ccc3cnc4ccc(-c5ccc(NS(C)(=O)=O)cc5)cc4c32)ccc1C`, the % of control was 100% in [10] (at 1 µM) and 65% in assay [10] (at 10 µM). Consider `CN(C)C/C=C/C(=O)Nc1ccc(C(=O)N2CCCC(Nc3ncc(Cl)c(-c4c[nH]c5ccccc45)n3)C2)cc1` (configuration not stated), for which the % of control in assay [11] is 93%. As for `Cc1ccc(-c2ccc3c(ccc4sc5c(c43)NC[C@@H](C)NC5=O)n2)cn1`, the % of inhibition in [12] was -9%. Take `O[C@H]1CC[C@H](Nc2ncc3nc(Nc4c(F)cc(F)cc4F)n([C@H]4CCOC4)c3n2)CC1`: the % of control in assay [13] was 60%; in [14], 100%.

In the case of `CCn1c(-c2nc3cc(C(=O)N4CCCC(N)C4)ccc3n2C)cc2ccccc21` (configuration not stated), the pXC50 in assay [15] is < 4.8 M. Consider `COc1cc(N(C)c2ccnc3ccc(C(F)(F)F)cc23)cc(OC)c1OC`, for which the % binding in assay [16] came out at 93%.
